What was measured:
[1] = biological target: PDE 7 (phosphodiesterase VII) (Homo sapiens (Human), UniProt Q13946); experiment: PDE 7 inhibiting effect (3H-cAMP hydrolysis, PDE 7 active fraction from MOLT-4 cells); assay type: biochemical; conditions: PDE 7 fraction from MOLT-4 cells, 0.064 μM cAMP, 10 μM rolipram, 2 hours at 25° C.; read-out: PDE7 IC50
Description: Methods for Evaluating the PDE 7 Inhibiting Effect
The PDE 7 (phosphodiesterase VII) inhibiting effect of the compounds of the present invention was performed by the following method, which was modified assay method described in Biochemical. Pharmacol. 48(6), 1219-1223 (1994). • (1) The active fraction of PDE 7 (phosphodiesterase VII) was obtained. That is, MOLT-4 (obtainable from ATCC as ATCC No. CRL-1582), which was cell line of human acute lymphoblastic lymphoma T cells, was incubated in RPMI1640 culture medium containing 10% fetal bovine serum to obtain 5×10^8 MOLT-4 cells. The cells were collected by centrifugation and suspended with 10 mL of buffer solution A [25 mM of tris-HCl, 5 mM of 2-mercaptoethanol, 2 mM of benzamidine, 2 mM of EDTA, 0.1 mM of 4-(2-aminoethyl)benzenesulfonyl hydrochloride; pH 7.5], then homogenized by Polytron® homogenizer. The homogenate were centrifuged under 25,000×G for 10 minutes at 4° C. The supernatant was separated and thus obtained supernatant was further centrifuged under 100,000×G for 60 minutes at 4° C., and then filtrated with 0.2 μm filter to obtain the soluble fraction. • (2) The obtained soluble fraction was filled in equilibrium HiTrap Q column (5 mL×2) with buffer solution A, and phosphodiesterase fractions were eluted by 300 mL of buffer solution A with linear gradient from 0 to 0.8 M NaCl concentration. 5 mL each of 60 eluents were collected, and each eluents were examined for cyclic AMP metabolic activities of phosphodiesterase. […] After the reaction, suspension of Sephadex®-QAE in 10 mM of HEPES-Na (pH 7.0) was added to the reaction mixture, and the mixture was left at rest for 5 minutes.

[2] = biological target: PDE 4 (phosphodiesterase IV); experiment: PDE 4 inhibiting effect (3H-cAMP hydrolysis, PDE 4 active fraction from Balb/c mouse liver); assay type: biochemical; conditions: PDE 4 fraction from Balb/c mice liver, 0.064 μM cAMP, 2 hours at 25° C.; read-out: PDE4 IC50
Description: Methods for Evaluating the PDE 4 Inhibiting Effect
The PDE 4 (phosphodiesterase IV) inhibiting effect of the compounds of the present invention was performed by the following method, which was modified assay method described in Biochemical. […] That is, the livers obtained from three Balb/c mice (male, 12 weeks: obtainable from CLEA Japan, Inc.) were suspended with 30 mL of buffer solution B [20 mM of bis-tris, 5 mM of 2-mercaptoethanol, 2 mM of benzamidine, 2 mM of EDTA, 0.1 mM of 4-(2-aminoethyl)benzenesulfonyl hydrochloride, 50 mM of sodium acetate; pH 6.5], then homogenized by Polytron® homogenizer. The homogenate were centrifuged under 25,000×G for 10 minutes at 4° C. The supernatant was separated and thus obtained supernatant was further centrifuged under 100,000×G for 60 minutes at 4° C., and then filtrated with 0.2 μm filter to obtain the soluble fraction. • (2) The obtained soluble fraction was filled in equilibrium DEAE sepharose column (1×10 cm) with buffer solution B, and phosphodiesterase fractions were eluted by 120 mL of buffer solution B with linear gradient from 0.05 to 1M sodium acetate concentration. 5 mL each of 24 eluents were collected, and each eluents were examined for cyclic AMP metabolic activities of phosphodiesterase. […] After the reaction, suspension of Sephadex®-QAE in 10 mM of HEPES-Na (pH 7.0) was added to the reaction mixture, and the mixture was left at rest for 5 minutes.

Sequence of PDE 7 (phosphodiesterase VII) (Q13946 whole entry): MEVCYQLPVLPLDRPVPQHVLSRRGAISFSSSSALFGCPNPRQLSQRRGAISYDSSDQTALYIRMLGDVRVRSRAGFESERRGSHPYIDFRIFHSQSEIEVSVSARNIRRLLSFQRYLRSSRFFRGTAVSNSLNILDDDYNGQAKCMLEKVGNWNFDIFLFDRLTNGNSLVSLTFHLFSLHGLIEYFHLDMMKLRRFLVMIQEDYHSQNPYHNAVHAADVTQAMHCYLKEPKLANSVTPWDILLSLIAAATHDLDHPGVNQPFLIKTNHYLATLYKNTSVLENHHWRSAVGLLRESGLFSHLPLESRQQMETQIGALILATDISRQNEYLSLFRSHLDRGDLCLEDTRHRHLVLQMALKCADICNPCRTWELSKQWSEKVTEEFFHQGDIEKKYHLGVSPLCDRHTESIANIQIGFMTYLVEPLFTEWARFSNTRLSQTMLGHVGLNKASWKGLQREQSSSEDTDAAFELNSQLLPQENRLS

Structure (SMILES)	IC50 [1]	IC50 [2]
CNC1CCN(c2ccc(NC(=O)c3cc4c(C)nn(C5CCCCC5)c4s3)cc2Cl)CC1 [Example 165, N-{3-Chloro-4-[4-(methylamino)-1-piperidinyl]phenyl}-1-cyclohexyl-3-methyl-1H-thieno[2,3-c]pyrazole-5-carboxamide]	20 nM	650 nM
Cc1nn(C2CCCCC2)c2sc(C(=O)Nc3ccc(OCC(=O)N(C)C)cc3)cc12 [Example 77, 1-Cyclohexyl-N-{4-[2-(dimethylamino)-2-oxoethoxy]phenyl}-3-methyl-1H-thieno[2,3-c]pyrazole-5-carboxamide]	20 nM	2000 nM
Cc1nn(C2CCCCC2)c2sc(C(=O)Nc3ccc(C(=O)O)cc3)cc12 [Example 41, 4-{[(1-Cyclohexyl-methyl-1H-thieno[2,3-c]pyrazol-5-yl)carbonyl]-amino}benzoic acid]	50 nM	12000 nM
CNC(=O)Cc1ccc(NC(=O)c2cc3c(C)nn(C4CCCCC4)c3s2)cc1 [Example 70]	25 nM	4700 nM
Cc1nn(C2CCCCC2)c2sc(C(=O)N[C@H]3CC[C@H](N4CCNC4=O)CC3)cc12 [Example 271, 1-Cyclohexyl-3-methyl-N-[trans-4-(2-oxo-1-imidazolidinyl)-cyclohexyl]-1H-thieno[2,3-c]pyrazole-5-carboxamide]	8.9 nM	2100 nM
Cc1nn(C2CCCCC2)c2sc(C(=O)N[C@H]3CC[C@H](N4CCCS4(=O)=O)CC3)cc12 [Example 274, 1-Cyclohexyl-N-[trans-(1,1-dioxide-2-isothiazolidinyl)cyclohexyl]-3-methyl-1H-thieno[2,3-c]pyrazole-5-carboxamide]	9.9 nM	1700 nM
Cc1nn(C2CCCCCC2)c2sc(C(=O)Nc3ccc(N4CCN(C)CC4)cc3)cc12 [Example 112]	8 nM	1200 nM

Results, then the compound that gave them:

IC50 [1]	IC50 [2]	Structure (SMILES)
25 nM	620 nM	Cc1nn(C2CCCCC2)c2sc(C(=O)Nc3ccc(C(=O)N[C@H]4CC[C@H](O)CC4)nc3)cc12 [Example 382, 1-Cyclohexyl-N-(6-{[(trans-4-hydroxycyclohexyl)amino]carbonyl}-3-pyridinyl)-3-methyl-1H-thieno[2,3-c]pyrazole-5-carboxamide]
28 nM	4600 nM	Cc1nn(C2CCOCC2)c2sc(C(=O)Nc3ccc(N4CCNC(=O)C4)cc3)cc12 [Example 342, 3-Methyl-N-[4(3-oxo-1-piperazinyl)phenyl]-1-tetrahydro-2H-pyran-4-yl-1H-thieno[2,3-c]pyrazole-5-carboxamide]
29 nM	4900 nM	CC[C@H](CN1C(=O)CNC1=O)NC(=O)c1cc2c(C)nn(C3CCCCC3)c2s1 [Example 331, 1-Cyclohexyl-N-{(1R)-1-[(2,5-dioxo-1-imidazolidinyl)methyl]propyl}-3-methyl-1H-thieno[2,3-c]pyrazole-5-carboxamide]
93 nM	5100 nM	Cc1nn(C2CCOCC2)c2sc(C(=O)N[C@H]3CC[C@H](N4CCN(C)CC4=O)CC3)cc12 [Example 415, 3-Methyl-N-[trans-4-(4-methyl-2-oxo-piperazinyl)cyclohexyl]-1-tetrahydro-2H-pyran-4-yl-1H-thieno[2,3-c]pyrazole-5-carboxamide]
8.7 nM	4100 nM	Cc1nn(C2CCCCC2)c2sc(C(=O)Nc3ccc(N4CCC(O)CC4)nc3)cc12 [Example 370, 1-Cyclohexyl-N-[6-(4-hydroxy-1-piperidinyl)-3-pyridinyl]-3-methyl-1H-thieno[2,3-c]pyrazole-5-carboxamide]
20 nM	5100 nM	Cc1nn(C2CCCCC2)c2sc(C(=O)NCC(C)(C)CN3C(=O)CNC3=O)cc12 [Example 339, 1-Cyclohexyl-N-[3-(2,5-dioxo-1-imidazolidinyl)-2,2-dimethylpropyl]-3-methyl-1H-thieno[2,3-c]pyrazole-5-carboxamide]

Reference: patent US8901315B2, “Thienopyrazole derivative having PDE7 inhibitory activity” (Daiichi Sankyo Company, Limited, priority 2004, dated 2014)
